Consider one compound from ChEMBL document CHEMBL4007395 (J Med Chem, 2017).

SMILES strings stand for the structures. A value given as a limit tells only on which side of the number the result lay.

Data set [1] in a line: Drug uptake in human rectal mucosa assessed per gram protein at 2 g/day for 30 days. The class given is ADME. The following applies: 720 h.
A short description of data set [2]: Inhibition of Escherichia coli AmpC beta-lactamase using CENTA as substrate preincubated for 5 mins followed by substrate addition by UV-vis spectrophotometric method.
The nature of data set [3]: Half-life in Sprague-Dawley rat at 500 mg/kg, po by LC-MS/MS analysis. In kind it is ADME, organism-based. The following applies: in vivo.
For another data set, the system named is Mus musculus. Briefly: Cmax in mouse at 100 mg/kg, po after 30 mins. The arrangement: dose 100 mg/kg, route oral. In kind it is ADME, organism-based. The note with it: in vivo, 0.5 h.
Data set [4] is described as follows: Cmax in human at 12 g, po administered as single dose capsule after 2 hrs by UV-HPLC method. The class given is ADME, organism-based. The arrangement: dose 12 g, route oral. The following applies: in vivo.
Data set [5] in a line: Inhibition of HIV-2 protease using anthranilyl-HIV protease as substrate preincubated for 5 mins followed by substrate addition in presence of nonionic detergent Triton-X-100 by fluorescence assay. The arrangement: species or system Human immunodeficiency virus 2.
In data set [6] the test system is Plasma. Briefly: Plasma concentration in human at 8 g/day, po by HPLC/TMS. The class given is ADME, organism-based. The note with it: in vivo.
Data set [7] is described as follows: Half-life in Tris-HCl buffer at 70 uM at pH 7.2 by UV/Vis spectrophotometric method. The class given is physicochemical.
The nature of data set [8]: Oral bioavailability in Sprague-Dawley rat at 500 mg/kg by LC-MS/MS analysis. In kind it is ADME, organism-based. The following applies: in vivo.
Data set [9] is filed under the species Homo sapiens. Briefly: Effect on total aberrant foci number in human colon cancer patient at 2 g/day for 30 days during phase IIa study by colonoscopic analysis. In kind it is functional.
For data set [10], the species on record is Homo sapiens. Briefly: Effect on total aberrant foci number in human colon cancer patient at 4 g/day for 30 days during phase IIa trial by colonoscopic analysis. The class given is functional.
Data set [11] has as its target Glycogen synthase kinase-3 beta (Rattus norvegicus, UniProt P18266). Briefly: Inhibition of recombinant rat N-terminal GST-tagged GSK3beta expressed in Escherichia coli assessed as reduction in tau phosphorylation preincubated for 30 mins followed by tau protein addition measured after 1 hr by ELISA.
The nature of data set [12]: Apparent permeability in human Caco2 cells. The class given is ADME, cell-based. The following applies: Caco-2. In general terms: Caco-2 monolayers are a common model of the intestinal barrier.
Data set [13] deals with Plasma. Briefly: Drug metabolism in human plasma assessed as curcumin glucuronide formation at 3.6 g, po administered as capsule measured at 1 hr post dose by UV-HPLC-MS analysis. The class given is ADME, organism-based. The following applies: in vivo.
In data set [14] the test system is Plasma. Briefly: Drug metabolism in human plasma assessed as curcumin sulfate formation at 3.6 g, po administered as capsule measured at 1 hr post dose by UV-HPLC-MS analysis. The class given is ADME, organism-based. The following applies: in vivo.
A short description of data set [15]: Half-life in Tris-HCl buffer at 70 uM at pH 7.5 by UV/Vis spectrophotometric method. In kind it is physicochemical.
Data set [16] can be described thus: Inhibition of Escherichia coli AmpC beta-lactamase using CENTA as substrate preincubated for 5 mins followed by substrate addition in presence of nonionic detergent Triton-X-100 by UV-vis spectrophotometric method.
Data set [17] can be described thus: Inhibition of malate dehydrogenase (unknown origin) using oxaloacetate as substrate preincubated for 5 mins followed by substrate addition by UV-vis spectrophotometric method. The arrangement: species or system Homo sapiens.
The nature of data set [18]: Drug uptake in human rectal mucosa assessed per gram protein at 4 g/day for 30 days. The class given is ADME. The following applies: 720 h.
Data set [19] can be described thus: Plasma concentration in human at 3.6 g, po administered as capsule measured at 1 hr post dose by UV-RP-HPLC method. The class given is ADME, organism-based.
Data set [20] in a line: Inhibition of malate dehydrogenase (unknown origin) using oxaloacetate as substrate preincubated for 5 mins followed by substrate addition in presence of nonionic detergent Triton-X-100 by UV-vis spectrophotometric method. The arrangement: species or system Homo sapiens.
A short description of data set [21]: Inhibition of HIV-2 protease using anthranilyl-HIV protease as substrate preincubated for 5 mins followed by substrate addition by fluorescence assay. The arrangement: species or system Human immunodeficiency virus 2.

Glycogen synthase kinase-3 beta, sequence (P18266 whole entry): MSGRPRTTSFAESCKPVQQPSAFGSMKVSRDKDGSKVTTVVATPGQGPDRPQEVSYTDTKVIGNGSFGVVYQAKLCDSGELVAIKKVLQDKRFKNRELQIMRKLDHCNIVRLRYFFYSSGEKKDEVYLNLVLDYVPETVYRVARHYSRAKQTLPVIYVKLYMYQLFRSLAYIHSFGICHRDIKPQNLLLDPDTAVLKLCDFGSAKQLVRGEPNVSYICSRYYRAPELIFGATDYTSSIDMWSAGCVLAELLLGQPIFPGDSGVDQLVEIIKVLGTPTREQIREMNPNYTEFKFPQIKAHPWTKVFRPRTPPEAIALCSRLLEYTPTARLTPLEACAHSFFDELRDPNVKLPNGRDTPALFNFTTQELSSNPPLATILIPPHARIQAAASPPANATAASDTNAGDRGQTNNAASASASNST

In the case of `COc1cc(/C=C/C(=O)CC(=O)/C=C/c2ccc(O)c(OC)c2)ccc1O` [CURCUMIN], the Drug uptake was 8.2 µg in data set [1] and 3.8 µg in data set [18]. The 50% inhibitory concentration (IC50) in data set [2] was 12 µM; in data set [5], > 100 µM; in data set [11], 0.066 µM; in data set [16], > 30 µM; in data set [17] it was 9 µM; in [20], > 30 µM. In data set [21], this compound showed a half-inhibitory concentration (IC50) of 9 µM. Also, the half-life in data set [3] is < 5 min. Further, the peak concentration (Cmax) worked out at 60 nM in the data set with Mus musculus and 57.6 ng/mL in data set [4]. In the data set with Plasma [6], the Cp fell in the range of 22 to 41 ng/mL. The results for the half-life at 70 µM in data set [7] and in [15] were < 10 min and 20 min, respectively. Also, in data set [8], the bioavailability is < 1%. The results for the Activity in the data set filed under Homo sapiens [9] and in the data set filed under Homo sapiens [10] were 0 and 6, respectively. Besides, in data set [12], the apparent permeability coefficient (Papp) was 3.18 ×10⁻⁶ cm/s. For the same compound, the Drug metabolism with Plasma [13] is 15.8 nmol/L; in the data set on Plasma [14], 8.9 nmol/L. The same compound came in with a concentration at 1 h in data set [19] of 11.1 ng/mL.

What is called IC50 is the midpoint of a concentration-inhibition curve. What is called half-life is how long it takes for the measured level to halve. A lower half-life goes with rapid decline. As a reminder, the Cmax is the peak of the concentration-time curve. One may read the bioavailability as the share of a dose that reaches the circulation, judged against a reference dose that is usually intravenous. What is called Papp is the rate of passage across a membrane or cell layer, normalised by area and donor concentration.
